Assay results as given in article PMC5448077, “Development of an orally available inhibitor of CLK1 for skipping a mutated dystrophin exon in Duchenne muscular dystrophy” (Scientific Reports, 2017).

Tests used:
Haspin = Haspin (Homo sapiens, UniProt Q8TF76); experiment: recombinant kinase panel (IMAP or mobility shift assay), percent inhibition at […] TG693; format: biochemical; conditions: read-out: % inhibition at 1 μM
BTK = BTK (Homo sapiens, UniProt Q06187); experiment: biochemical
Protocol: (§1) These assays rely on the phosphorylation of small synthetic peptides developed for each kinase, and detect activity by changes in electrophoretic mobility (MSA assay) or by binding of a fluorescently labelled peptide to a large micro-particle and concomitant polarization increases (IMAP assay). Reaction conditions for each kinase are described in Supplementary Table S5. All kinase assays were carried out at Carna Biosciences (Kobe, Japan). The inhibitory map was constructed using Kinome Render[41]. Inhibitor (4×), substrate/ATP-Metal (4×), and kinase (2×) solutions were prepared with assay buffer (20 mM HEPES, 0.01% Triton X-100, 2 mM DTT, pH 7.5) and mixed in 384-well plates at room temperature for 1 or 5 h depending on the kinase. Reactions were stopped by the addition of termination buffer (QuickScout Screening Assist MSA; Carna Biosciences). The entire reaction mixture was then applied to a LabChip system (Perkin-Elmer, Waltham, MA, USA) and the product and substrate peptide peaks were separated and quantified, and then heights of product (P) and substrate (S) peptide peaks were calculated. The level of kinase activity was evaluated with the following equation: activity = P/(P + S).

JNK2 = biological target: T1, JNK2 (Homo sapiens, UniProt P45984); experiment: biochemical
T1 construct: gene MAPK9
Protocol: as §1

JAK2 = JAK2 (Homo sapiens, UniProt O60674); experiment: biochemical
Protocol: as §1

CDK3/CycE1 = CDK3/CycE1 (Homo sapiens, UniProt Q00526); experiment: biochemical
Protocol: as §1

CGK2 = biological target: T2, CGK2 (Homo sapiens, UniProt Q13237); experiment: biochemical
T2 construct: gene PRKG2
Protocol: as §1

PKCι = biological target: T3, PKCι (Homo sapiens, UniProt P41743); experiment: biochemical
T3 construct: gene PRKCI
T3 sequence (P41743 whole entry): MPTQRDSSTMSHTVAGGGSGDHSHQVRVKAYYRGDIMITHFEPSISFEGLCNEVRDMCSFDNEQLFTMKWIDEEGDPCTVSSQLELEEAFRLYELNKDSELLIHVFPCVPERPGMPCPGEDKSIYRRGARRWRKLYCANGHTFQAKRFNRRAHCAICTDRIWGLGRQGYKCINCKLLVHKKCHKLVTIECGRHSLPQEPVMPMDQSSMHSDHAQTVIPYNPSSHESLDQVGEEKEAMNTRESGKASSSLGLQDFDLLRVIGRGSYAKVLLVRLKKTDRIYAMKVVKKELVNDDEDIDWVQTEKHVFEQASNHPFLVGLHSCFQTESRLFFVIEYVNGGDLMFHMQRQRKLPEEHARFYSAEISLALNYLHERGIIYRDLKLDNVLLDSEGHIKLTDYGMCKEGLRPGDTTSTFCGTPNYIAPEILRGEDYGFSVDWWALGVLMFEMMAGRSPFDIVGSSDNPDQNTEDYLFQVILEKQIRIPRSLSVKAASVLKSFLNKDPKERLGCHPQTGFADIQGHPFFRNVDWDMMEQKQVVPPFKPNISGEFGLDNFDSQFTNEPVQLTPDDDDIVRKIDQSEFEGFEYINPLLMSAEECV
Protocol: as §1

CaMK2γ = biological target: T4, CaMK2γ (Homo sapiens, UniProt Q13555); experiment: biochemical
T4 construct: gene CAMK2G
Protocol: as §1

IGF1R = IGF1R (Homo sapiens, UniProt P08069); experiment: biochemical
Protocol: as §1

MSK2 = biological target: T5, MSK2 (Homo sapiens, UniProt O75676); experiment: biochemical
T5 construct: gene RPS6KA4
T5 sequence (O75676 whole entry): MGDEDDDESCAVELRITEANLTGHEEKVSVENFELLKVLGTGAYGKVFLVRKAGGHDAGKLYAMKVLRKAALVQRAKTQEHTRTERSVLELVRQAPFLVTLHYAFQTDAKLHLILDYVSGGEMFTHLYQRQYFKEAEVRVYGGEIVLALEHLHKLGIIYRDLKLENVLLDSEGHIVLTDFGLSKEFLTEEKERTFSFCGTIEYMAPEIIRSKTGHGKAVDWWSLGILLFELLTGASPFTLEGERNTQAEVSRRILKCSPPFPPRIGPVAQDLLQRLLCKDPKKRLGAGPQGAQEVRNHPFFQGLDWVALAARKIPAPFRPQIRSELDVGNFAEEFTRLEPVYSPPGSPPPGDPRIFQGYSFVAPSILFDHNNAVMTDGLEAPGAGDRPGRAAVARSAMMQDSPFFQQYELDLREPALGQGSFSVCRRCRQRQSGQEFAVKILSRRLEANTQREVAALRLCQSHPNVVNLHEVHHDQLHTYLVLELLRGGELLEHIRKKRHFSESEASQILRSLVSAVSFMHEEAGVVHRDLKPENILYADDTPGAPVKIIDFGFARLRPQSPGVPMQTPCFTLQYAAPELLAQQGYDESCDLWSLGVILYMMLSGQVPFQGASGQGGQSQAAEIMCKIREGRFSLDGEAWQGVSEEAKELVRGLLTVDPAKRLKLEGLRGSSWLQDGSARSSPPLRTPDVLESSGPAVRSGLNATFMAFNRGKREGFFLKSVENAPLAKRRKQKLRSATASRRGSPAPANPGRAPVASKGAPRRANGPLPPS
Protocol: as §1

RET = RET (Homo sapiens, UniProt P07949); experiment: biochemical
Protocol: as §1

EPHB4 = EPHB4 (Homo sapiens, UniProt P54760); experiment: biochemical
EPHB4, sequence (P54760 whole entry): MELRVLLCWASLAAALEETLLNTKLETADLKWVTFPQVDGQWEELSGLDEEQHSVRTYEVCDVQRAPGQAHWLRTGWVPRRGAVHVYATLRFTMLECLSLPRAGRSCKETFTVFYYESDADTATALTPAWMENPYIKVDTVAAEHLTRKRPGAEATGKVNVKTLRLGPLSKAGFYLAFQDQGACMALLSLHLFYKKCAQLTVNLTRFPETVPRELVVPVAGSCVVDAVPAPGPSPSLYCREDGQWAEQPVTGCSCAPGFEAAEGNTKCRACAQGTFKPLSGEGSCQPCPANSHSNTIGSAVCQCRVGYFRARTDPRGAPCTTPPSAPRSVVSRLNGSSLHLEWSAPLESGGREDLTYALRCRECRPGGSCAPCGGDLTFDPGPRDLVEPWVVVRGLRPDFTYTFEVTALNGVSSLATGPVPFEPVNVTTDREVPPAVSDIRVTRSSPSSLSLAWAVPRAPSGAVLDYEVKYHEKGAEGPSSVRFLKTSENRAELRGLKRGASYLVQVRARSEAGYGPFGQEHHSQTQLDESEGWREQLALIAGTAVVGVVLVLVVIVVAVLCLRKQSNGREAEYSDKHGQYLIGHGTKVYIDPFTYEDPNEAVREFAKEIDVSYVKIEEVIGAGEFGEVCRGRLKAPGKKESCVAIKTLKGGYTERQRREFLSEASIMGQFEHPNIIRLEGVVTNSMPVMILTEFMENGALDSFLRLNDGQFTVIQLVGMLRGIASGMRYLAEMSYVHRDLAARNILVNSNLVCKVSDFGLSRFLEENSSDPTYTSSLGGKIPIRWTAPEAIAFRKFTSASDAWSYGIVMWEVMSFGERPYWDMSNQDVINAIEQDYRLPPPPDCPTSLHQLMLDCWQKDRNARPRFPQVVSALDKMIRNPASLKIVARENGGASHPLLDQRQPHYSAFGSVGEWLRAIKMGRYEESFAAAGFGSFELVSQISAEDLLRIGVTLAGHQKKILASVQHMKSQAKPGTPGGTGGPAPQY
Protocol: as §1

YES = biological target: T6, YES (Homo sapiens, UniProt P07947); experiment: biochemical
T6 construct: gene YES1
T6 sequence (P07947 whole entry): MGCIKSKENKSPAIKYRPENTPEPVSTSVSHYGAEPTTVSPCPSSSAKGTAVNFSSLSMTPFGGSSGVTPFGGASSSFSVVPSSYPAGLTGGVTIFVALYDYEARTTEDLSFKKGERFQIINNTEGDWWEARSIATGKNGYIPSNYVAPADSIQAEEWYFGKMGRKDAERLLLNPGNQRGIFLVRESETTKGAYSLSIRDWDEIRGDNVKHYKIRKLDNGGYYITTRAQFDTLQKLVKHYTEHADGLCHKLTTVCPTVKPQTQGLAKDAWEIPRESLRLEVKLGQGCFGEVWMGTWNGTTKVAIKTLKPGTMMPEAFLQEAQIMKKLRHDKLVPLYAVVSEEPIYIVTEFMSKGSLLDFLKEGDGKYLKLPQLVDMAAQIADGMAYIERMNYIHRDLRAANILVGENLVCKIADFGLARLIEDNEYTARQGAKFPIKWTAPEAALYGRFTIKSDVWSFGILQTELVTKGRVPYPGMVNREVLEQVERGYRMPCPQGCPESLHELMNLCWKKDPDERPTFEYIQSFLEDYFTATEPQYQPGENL
Protocol: as §1

DYRK3 = DYRK3 (Homo sapiens, UniProt O43781); experiment: biochemical
Protocol: as §1

MELK = MELK (Homo sapiens, UniProt Q14680); experiment: biochemical
Protocol: as §1

KIT = KIT (Homo sapiens, UniProt P10721); experiment: biochemical
Protocol: as §1

PYK2 = biological target: T7, PYK2 (Homo sapiens, UniProt Q14289); experiment: biochemical
T7 construct: gene PTK2B
Protocol: as §1

WNK1 = WNK1 (Homo sapiens, UniProt Q9H4A3); experiment: biochemical
Protocol: as §1

PBK = PBK (Homo sapiens, UniProt Q96KB5); experiment: biochemical
PBK, sequence (Q96KB5 whole entry): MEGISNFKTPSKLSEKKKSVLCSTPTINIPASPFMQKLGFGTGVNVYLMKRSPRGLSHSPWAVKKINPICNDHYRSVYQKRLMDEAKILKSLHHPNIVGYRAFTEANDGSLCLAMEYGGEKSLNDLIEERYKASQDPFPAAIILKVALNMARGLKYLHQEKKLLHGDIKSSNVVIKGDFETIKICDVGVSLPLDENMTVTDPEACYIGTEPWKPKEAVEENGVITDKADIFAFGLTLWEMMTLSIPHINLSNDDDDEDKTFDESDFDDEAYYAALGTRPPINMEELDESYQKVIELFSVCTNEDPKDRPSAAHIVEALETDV
Protocol: as §1

SLK = SLK (Homo sapiens, UniProt Q9H2G2); experiment: biochemical
Protocol: as §1

MAPKAPK5 = MAPKAPK5 (Homo sapiens, UniProt Q8IW41); experiment: biochemical
Protocol: as §1

MRCKα = biological target: T8, MRCKα (Homo sapiens, UniProt Q5VT25); experiment: biochemical
T8 construct: gene CDC42BPA
Protocol: as §1

TNK1 = TNK1 (Homo sapiens, UniProt Q13470); experiment: biochemical
Protocol: as §1

CDC2/CycB1 = biological target: T9, CDC2/CycB1 (Homo sapiens, UniProt P06493); experiment: biochemical
T9 construct: gene CDK1
Protocol: as §1

TNIK = TNIK (Homo sapiens, UniProt Q9UKE5); experiment: biochemical
Protocol: as §1

MER = biological target: T10, MER (Homo sapiens, UniProt Q12866); experiment: biochemical
T10 construct: gene MERTK
Protocol: as §1

CLK3 = CLK3 (Homo sapiens, UniProt P49761); experiment: biochemical
Protocol: as §1

RSK4 = biological target: T11, RSK4 (Homo sapiens, UniProt Q9UK32); experiment: biochemical
T11 construct: gene RPS6KA6
Protocol: as §1

p38α = biological target: T12, p38α (Homo sapiens, UniProt Q16539); experiment: biochemical
T12 construct: gene MAPK14
Protocol: as §1

PDGFRα(T674I) = biological target: T13, PDGFRα(T674I) (Homo sapiens, UniProt P16234, T674I); experiment: biochemical
T13 construct: gene PDGFRA
T13 sequence (P16234 whole entry T674I): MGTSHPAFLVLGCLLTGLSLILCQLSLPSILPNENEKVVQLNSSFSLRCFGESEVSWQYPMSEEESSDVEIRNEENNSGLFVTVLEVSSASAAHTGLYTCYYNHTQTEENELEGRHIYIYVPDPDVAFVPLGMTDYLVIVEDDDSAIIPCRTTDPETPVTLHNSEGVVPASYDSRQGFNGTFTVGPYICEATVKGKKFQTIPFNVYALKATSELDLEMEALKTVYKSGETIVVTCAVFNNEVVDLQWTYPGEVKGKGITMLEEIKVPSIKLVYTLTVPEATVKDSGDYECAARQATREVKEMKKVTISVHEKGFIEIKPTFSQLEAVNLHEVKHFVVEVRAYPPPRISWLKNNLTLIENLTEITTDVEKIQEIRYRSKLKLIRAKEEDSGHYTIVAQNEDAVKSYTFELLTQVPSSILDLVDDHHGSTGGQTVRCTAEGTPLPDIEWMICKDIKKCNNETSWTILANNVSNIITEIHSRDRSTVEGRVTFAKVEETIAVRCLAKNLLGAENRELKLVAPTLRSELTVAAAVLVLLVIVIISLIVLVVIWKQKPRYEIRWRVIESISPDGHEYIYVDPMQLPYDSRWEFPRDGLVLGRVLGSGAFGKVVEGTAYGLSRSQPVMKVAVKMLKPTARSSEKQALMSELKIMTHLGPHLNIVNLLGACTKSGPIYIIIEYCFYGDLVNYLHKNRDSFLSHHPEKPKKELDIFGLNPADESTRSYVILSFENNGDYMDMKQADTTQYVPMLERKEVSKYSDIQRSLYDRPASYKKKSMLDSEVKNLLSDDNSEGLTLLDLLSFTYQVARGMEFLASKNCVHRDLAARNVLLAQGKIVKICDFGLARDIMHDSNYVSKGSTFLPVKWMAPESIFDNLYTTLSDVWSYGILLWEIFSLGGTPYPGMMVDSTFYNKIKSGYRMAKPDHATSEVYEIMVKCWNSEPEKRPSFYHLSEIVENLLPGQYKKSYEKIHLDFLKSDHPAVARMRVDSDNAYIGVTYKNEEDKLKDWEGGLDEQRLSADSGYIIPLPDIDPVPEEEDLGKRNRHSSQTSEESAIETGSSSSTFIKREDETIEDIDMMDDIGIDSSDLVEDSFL
Protocol: as §1

PLK1 = PLK1 (Homo sapiens, UniProt P53350); experiment: biochemical
Protocol: as §1

BTK, sequence (Q06187 whole entry): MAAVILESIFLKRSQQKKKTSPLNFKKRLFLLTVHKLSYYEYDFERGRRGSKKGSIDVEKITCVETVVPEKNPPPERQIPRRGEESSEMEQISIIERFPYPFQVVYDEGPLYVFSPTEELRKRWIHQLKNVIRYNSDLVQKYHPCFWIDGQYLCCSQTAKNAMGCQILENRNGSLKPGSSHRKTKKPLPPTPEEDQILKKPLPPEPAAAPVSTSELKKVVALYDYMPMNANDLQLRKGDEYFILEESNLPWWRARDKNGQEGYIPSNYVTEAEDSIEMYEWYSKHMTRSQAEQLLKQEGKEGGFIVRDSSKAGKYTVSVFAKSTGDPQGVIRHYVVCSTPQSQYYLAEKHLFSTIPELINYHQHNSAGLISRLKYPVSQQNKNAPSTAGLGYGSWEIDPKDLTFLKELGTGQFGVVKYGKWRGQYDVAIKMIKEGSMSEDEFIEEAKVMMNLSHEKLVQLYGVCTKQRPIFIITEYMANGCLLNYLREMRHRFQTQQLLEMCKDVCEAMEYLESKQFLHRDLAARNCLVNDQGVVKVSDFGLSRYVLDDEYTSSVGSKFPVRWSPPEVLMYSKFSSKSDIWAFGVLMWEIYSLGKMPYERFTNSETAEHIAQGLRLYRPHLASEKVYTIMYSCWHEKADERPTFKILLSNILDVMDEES

Question: Which inhibition at 1 µM (Haspin) does the source give for `c1cc(-c2ccc3[nH]ncc3c2)ccn1` [TG693, 5-(4-pyridinyl)-1H-indazole] here?
Answer: > 90%

Question: And the inhibition at 1 µM (BTK)?
Answer: -9.5%

Question: What about the inhibition at 1 µM (JNK2) of the same compound?
Answer: -5.9%

Question: And the inhibition at 1 µM (JAK2)?
Answer: 7.9%

Question: What about the inhibition at 1 µM (CDK3/CycE1) of the same compound?
Answer: 11.4%

Question: What about the inhibition at 1 µM (CGK2) of the same compound?
Answer: 38.5%

Question: And the inhibition at 1 µM (PKCι)?
Answer: -6.8%

Question: What about the inhibition at 1 µM (CaMK2γ) of the same compound?
Answer: -2.4%

Question: What about the inhibition at 1 µM (IGF1R) of the same compound?
Answer: 3.3%

Question: And the inhibition at 1 µM (MSK2)?
Answer: -5.1%

Question: And the inhibition at 1 µM (RET)?
Answer: 4.8%

Question: What about the inhibition at 1 µM (EPHB4) of the same compound?
Answer: -1.5%

Question: What about the inhibition at 1 µM (YES) of the same compound?
Answer: -9.6%

Question: And the inhibition at 1 µM (DYRK3)?
Answer: 64%

Question: What about the inhibition at 1 µM (MELK) of the same compound?
Answer: 5.7%

Question: And the inhibition at 1 µM (KIT)?
Answer: -0.9%

Question: And the inhibition at 1 µM (PYK2)?
Answer: 3.3%

Question: And the inhibition at 1 µM (WNK1)?
Answer: 4.1%

Question: And the inhibition at 1 µM (PBK)?
Answer: -3.5%

Question: And the inhibition at 1 µM (SLK)?
Answer: 1.2%

Question: What about the inhibition at 1 µM (MAPKAPK5) of the same compound?
Answer: 2.6%

Question: And the inhibition at 1 µM (MRCKα)?
Answer: -18.2%

Question: What about the inhibition at 1 µM (TNK1) of the same compound?
Answer: 3.8%

Question: And the inhibition at 1 µM (CDC2/CycB1)?
Answer: 10.3%

Question: What about the inhibition at 1 µM (TNIK) of the same compound?
Answer: 48.6%

Question: What about the inhibition at 1 µM (MER) of the same compound?
Answer: 3%

Question: And the inhibition at 1 µM (CLK3)?
Answer: 11.7%

Question: And the inhibition at 1 µM (RSK4)?
Answer: -6.5%

Question: And the inhibition at 1 µM (p38α)?
Answer: -0.1%

Question: What about the inhibition at 1 µM (PDGFRα(T674I)) of the same compound?
Answer: 7.6%

Question: And the inhibition at 1 µM (PLK1)?
Answer: -8.5%
